Assay results reported in patent US9938273B2 (Plexxikon Inc., priority 2015, dated 2018).

Experiments:
[1] = tested on: MOLM-14 D835Y cells, FLT3 ITD and FLT3 D835Y; test: Cell proliferation assay (CellTiter-Glo), MOLM-14 D835Y; format: cell-based; conditions: Homo sapiens, 72 h, 3d-Growth, GMean
Text: The FLT3 inhibitors may be assessed using the MOLM-14, Acute Myeloid Leukemia cell line that endogenously expresses FLT3 ITD or derivatives of the human FLT3 AML cell line which acquired the D835Y (activation loop) of F691L (gatekeeper) mutation after selection in escalating doses of the FLT3 Inhibitor AC220. FLT3 inhibitors may also be assessed using cells that are engineered to express mutant FLT3. For engineered cells, murine Ba/F3 cells were transfected with full-length FLT3 ITD/D835Y mutations. The parental BA/F3 cells are dependent upon Interleukin-3 (IL-3) for survival, and introduction of the FLT3 constructs rendered these cells dependent upon FLT3 kinase activity when cultured in the absences of IL-3. Engineered BA/F3 cell growth assays can be performed in either the […] of IL-3, to assess the compound inhibition of FLT3 or to detect the presence of off-target activity, respectively. Inhibitors of FLT3 kinase activity reduce or eliminate the FLT3 oncogenic signaling, resulting in reduced cell proliferation. This inhibition is measured as a function of compound concentration to asses IC50 values.
Cell lines used in proliferation assays are as follows in Table 3:
Cells were seeded at 1×10^4 cells per well of a 96 well cell culture plate in 50 μl of cell culture medium. Compounds were dissolved in DMSO, typically at a concentration of 0.5 mM and were serially diluted 1:3 for a total of eight points and added to the cells to final concentrations of […], 0.0041, 0.0014 and 0.00046 μM in 100 μl cell culture medium (final concentration 0.2% DMSO). […] The cells were incubated at 37° C., 5% CO2 for three days. CellTiter-Glo Buffer (Promega Cell Viability Assay catalog #G7573) and substrate were equilibrated to room temperature, and enzyme/substrate Recombinant Firefly Luciferase/Beetle Luciferin was reconstituted. The cell plates were equilibrated to room temperature for 30 minutes, then lysed by addition of an equivalent volume of the Celltiter-Glo Reagent. The plate was mixed for 10 minutes on a plate shaker to lyse the cells. The plates were read on a Tecan M1000 using Luminescence protocol modified to read 0.1 s per well. The luminescence reading assesses the ATP content, which correlates directly with cell number such that the reading as a function of compound concentration was used to determine the IC50 value.

FLT3-ITD = target: T1, FLT3-ITD (Homo sapiens, UniProt P36888); test: AlphaScreen kinase assay with recombinant enzyme, FLT3-ITD; format: biochemical; conditions: 8pt; read-out: FLT3_ITD 8pt: IC50
T1 sequence (P36888 1-993): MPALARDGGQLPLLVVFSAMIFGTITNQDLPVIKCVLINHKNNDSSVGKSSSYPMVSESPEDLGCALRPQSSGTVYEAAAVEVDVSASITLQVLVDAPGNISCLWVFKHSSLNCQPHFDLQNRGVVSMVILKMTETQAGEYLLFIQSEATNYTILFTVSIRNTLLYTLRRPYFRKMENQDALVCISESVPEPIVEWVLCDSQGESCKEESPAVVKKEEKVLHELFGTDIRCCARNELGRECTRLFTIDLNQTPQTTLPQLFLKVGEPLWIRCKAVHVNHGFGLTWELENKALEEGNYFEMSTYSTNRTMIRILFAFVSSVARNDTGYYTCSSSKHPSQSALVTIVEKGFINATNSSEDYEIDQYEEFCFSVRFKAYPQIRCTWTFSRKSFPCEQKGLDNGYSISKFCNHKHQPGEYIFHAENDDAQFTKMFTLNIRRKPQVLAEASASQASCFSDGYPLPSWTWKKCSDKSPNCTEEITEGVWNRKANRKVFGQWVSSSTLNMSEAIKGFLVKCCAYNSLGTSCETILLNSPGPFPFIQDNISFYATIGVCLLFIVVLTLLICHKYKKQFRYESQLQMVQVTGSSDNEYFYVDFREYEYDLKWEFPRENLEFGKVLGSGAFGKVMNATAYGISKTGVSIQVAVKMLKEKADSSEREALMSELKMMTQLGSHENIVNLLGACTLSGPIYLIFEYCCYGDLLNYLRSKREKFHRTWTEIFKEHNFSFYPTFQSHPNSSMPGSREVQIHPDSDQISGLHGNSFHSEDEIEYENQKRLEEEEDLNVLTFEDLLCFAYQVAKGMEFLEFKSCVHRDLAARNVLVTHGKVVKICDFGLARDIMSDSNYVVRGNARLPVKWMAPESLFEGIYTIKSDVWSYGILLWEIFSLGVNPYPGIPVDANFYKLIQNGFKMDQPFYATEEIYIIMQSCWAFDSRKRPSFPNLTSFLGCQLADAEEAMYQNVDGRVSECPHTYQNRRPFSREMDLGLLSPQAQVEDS
Method: In order to determine the effect of compounds on FLT3 catalytic activity, kinase assays using recombinant enzymes and AlphaScreen® technology have been established. The catalytic activity of c-kit activity was also measured to determine selectivity of the compounds. When the kinases are catalytically active, they phosphorylate a biotinylated peptide substrate on tyrosine residues. Using AlphaScreen® technology, the ability of the compounds to affect the catalytic activity of the kinases can be measured quantitatively. The peptide substrate is immobilized by the AlphaScreen® Streptavidin Donor beads and, upon phosphorylation by a tyrosine kinase, can bind to AlphaScreen® Anti-Phosphotyrosine (PY20) Acceptor beads. Upon excitation of these beads with laser light at 680 nm, singlet oxygen is produced. This singlet oxygen is rapidly quenched, unless the AlphaScreen® Anti-Phosphotyrosine (PY20) Acceptor beads are in close proximity, in which case a proximity signal can be measured at 580 nm. In the presence of catalytic activity, there is a very strong proximity signal. Selective kinase inhibitors affect a decrease in this proximity signal through a decrease in tyrosine phosphorylation of the peptide substrate.
The assay was performed as summarized below.
Poly (Glu4-Tyr) Peptide, biotin conjugate [Biotin-GG(EEEEY)10EE] (SEQ ID NO: 4)
Final concentration=30 nM
Final concentration for IC50 determination=10 μM (FLT3-D835Y or FLT3-ITD) or 100 μM (c-KIT)
AlphaScreen® Phosphotyrosine (PY20) Assay Kit
Final concentration=10 μg/mL
Dilute compounds in DMSO to 20× final concentration.
Add 1 μl of compound to each well of 384 well reaction plate (Perkin Elmer #6005359).
Mix enzyme and Poly (Glu4-Tyr) Peptide substrate at 1.33× final concentration in assay buffer.
Mix ATP at 5× final concentration in assay buffer.
Add 15 μL enzyme/substrate mixture to the reaction plate.
Add 4 μL of ATP to the reaction plate.
Mix Streptavidin Donor beads at 6× final concentration in Stop/Detection buffer.
Add 5 μL Streptavidin Donor beads to the reaction plate. Centrifuge 1 minute, shake to mix, and incubate at room temperature for 20 minutes.
Mix Anti-Phosphotyrosine (PY20) Acceptor beads at 6× final concentration in Stop/Detection buffer.
Add 5 μL Anti-Phosphotyrosine (PY20) beads to the reaction plate.
Centrifuge 1 minute, shake to mix, and incubate at room temperature for 60 minutes.
Read plate on Wallac EnVision™ 2103 Multilabel Reader.

Row | Structure (SMILES) | IC50 [1] | IC50 (FLT3-ITD)
1 | CC(C)(NC(=O)c1cccc(-c2cnc3[nH]c(C4=CCN(C(=O)C5CC5)C4)cc3c2)n1)C(N)=O [Compound P-0179, N-(2-amino-1,1-dimethyl-2-oxo-ethyl)-6-[2-[1-(cyclopropanecarbonyl)-2,5-dihydropyrrol-3-yl]-1H-pyrrolo[2,3-b]pyridin-5-yl]pyridine-2-carboxamide] | 0.0001 to 10 µM | 0.0001 to 10 µM
2 | CC(C)(C#N)NC(=O)c1cccc(-c2cnc3[nH]c(-c4cnn(C(F)F)c4)cc3c2)n1 [Compound P-0164, N-(2-cyanopropan-2-yl)-6-(2-(1-(difluoromethyl)-1H-pyrazol-4-yl)-1H-pyrrolo[2,3-b]pyridin-5-yl)picolinamide] | 0.0001 to 10 µM | 0.0001 to 10 µM
3 | COc1cc(-c2cc3cc(-c4cccc(C(=O)NCC(C)(C)C#N)n4)cnc3[nH]2)ccn1 [Compound P-0154, N-(2-cyano-2-methyl-propyl)-6-[2-(2-methoxy-4-pyridyl)-1H-pyrrolo[2,3-b]pyridin-5-yl]pyridine-2-carboxamide] | 0.0001 to 10 µM | 0.0001 to 10 µM
4 | N#CCCNC(=O)c1cccc(-c2cnc3[nH]c(-c4ccccc4)c(I)c3c2)n1 [Compound P-0143, N-(2-cyanoethyl)-6-(3-iodo-2-phenyl-1H-pyrrolo[2,3-b]pyridin-5-yl)pyridine-2-carboxamide] | 0.0001 to 10 µM | 0.0001 to 10 µM
5 | N#CC1(NC(=O)c2cccc(-c3cnc4[nH]c(-c5ccccc5)c(Cl)c4c3)n2)CC1 [Compound P-0139, 6-(3-chloro-2-phenyl-1H-pyrrolo[2,3-b]pyridin-5-yl)-N-(1-cyanocyclopropyl)pyridine-2-carboxamide] | 0.0001 to 10 µM | 0.0001 to 10 µM
6 | CC(C)(C#N)NC(=O)c1cccc(-c2cnc3[nH]c(-c4cnn(C5CCOC5)c4)cc3c2)n1 (stereo not shown) [Compound P-0173, N-(1-cyano-1-methyl-ethyl)-6-[2-(1-tetrahydrofuran-3-ylpyrazol-4-yl)-1H-pyrrolo[2,3-b]pyridin-5-yl]pyridine-2-carboxamide] | 0.0001 to 10 µM | 0.0001 to 10 µM
7 | Cc1cc(-c2cc3cc(-c4cccc(C(=O)NC(C)(C)C#N)n4)cnc3[nH]2)cnn1 [Compound P-0163, N-(1-cyano-1-methyl-ethyl)-6-[2-(6-methylpyridazin-4-yl)-1H-pyrrolo[2,3-b]pyridin-5-yl]pyridine-2-carboxamide] | 0.0001 to 10 µM | 0.0001 to 10 µM
8 | CN(CCC#N)C(=O)c1cccc(-c2cnc3[nH]c(-c4ccccc4)cc3c2)n1 [Compound P-0119, N-(2-cyanoethyl)-N-methyl-6-(2-phenyl-1H-pyrrolo[2,3-b]pyridin-5-yl)pyridine-2-carboxamide] | 0.0001 to 10 µM | 0.0001 to 10 µM
9 | CC(C)(C#N)CNC(=O)c1cccc(-c2cnc3[nH]c(-c4ccccc4)cc3c2)n1 [Compound P-0100, N-(2-cyano-2-methyl-propyl)-6-(2-phenyl-1H-pyrrolo[2,3-b]pyridin-5-yl)pyridine-2-carboxamide] | 0.0001 to 10 µM | 0.0001 to 10 µM
10 | N#Cc1cccc(-c2cc3cc(-c4cccc(C(=O)N5CCC(C#N)C5)n4)cnc3[nH]2)c1 (stereo not shown) [Compound P-0133, 1-[6-[2-(3-cyanophenyl)-1H-pyrrolo[2,3-b]pyridin-5-yl]pyridine-2-carbonyl]pyrrolidine-3-carbonitrile] | 0.0001 to 10 µM | 0.0001 to 10 µM
11 | CC(C)(C#N)NC(=O)c1cccc(-c2cnc3[nH]c(-c4cnn(Cc5ccccc5)c4)cc3c2)n1 [Compound P-0171, 6-[2-(1-benzylpyrazol-4-yl)-1H-pyrrolo[2,3-b]pyridin-5-yl]-N-(1-cyano-1-methyl-ethyl)pyridine-2-carboxamide] | 0.0001 to 10 µM | 0.0001 to 10 µM
12 | CC(C)(O)CNC(=O)c1cccc(-c2cnc3[nH]c(-c4ccccc4)cc3c2)n1 [Compound P-0150, N-(2-hydroxy-2-methyl-propyl)-6-(2-phenyl-1H-pyrrolo[2,3-b]pyridin-5-yl)pyridine-2-carboxamide] | 0.0001 to 10 µM | 0.0001 to 10 µM
13 | CC(C)(C#N)NC(=O)c1cccc(-c2cnc3[nH]c(-c4cnn(CCC#N)c4)cc3c2)n1 [Compound P-0170, 6-[2-[1-(2-cyanoethyl)pyrazol-4-yl]-1H-pyrrolo[2,3-b]pyridin-5-yl]-N-(1-cyano-1-methyl-ethyl)pyridine-2-carboxamide] | 0.0001 to 10 µM | 0.0001 to 10 µM
14 | N#CC1CCN(S(=O)(=O)c2cccc(-c3cnc4[nH]c(-c5ccccc5)cc4c3)n2)C1 (stereo not shown) [Compound P-0121, 1-[[6-(2-phenyl-1H-pyrrolo[2,3-b]pyridin-5-yl)-2-pyridyl]sulfonyl]pyrrolidine-3-carbonitrile] | 0.0001 to 10 µM | 
15 | CC(C)(C#N)CNC(=O)c1cccc(-c2cnc3[nH]c(C4=CCN(C(=O)C5CC5)C4)cc3c2)n1 [Compound P-0141, N-(2-cyano-2-methyl-propyl)-6-[2-[1-(cyclopropanecarbonyl)-2,5-dihydropyrrol-3-yl]-1H-pyrrolo[2,3-b]pyridin-5-yl]pyridine-2-carboxamide] | 0.0001 to 10 µM | 0.0001 to 10 µM
16 | CC(C)(C#N)CNC(=O)c1cccc(-c2cnc3[nH]c(C4=CCC(F)(F)CC4)cc3c2)n1 [Compound P-0157, N-(2-cyano-2-methyl-propyl)-6-[2-(4,4-difluorocyclohexen-1-yl)-1H-pyrrolo[2,3-b]pyridin-5-yl]pyridine-2-carboxamide] | 0.0001 to 10 µM | 0.0001 to 10 µM
